Reference: US8119589B2, “Modulation of CD4+ T cell responses by a tick saliva protein, Salp15 and polypeptides derived therefrom” (University of North Carolina at Charlotte, priority 2004, dated 2012)

Legend:
Jurkat cells = test: Actin polymerization (phalloidin488 staining, F-actin immunoblot) in activated Jurkat cells; format: cell-based, human; settings: Salp15 pretreatment
Method: For the visualization of lipid rafts, phospho-tyrosine, and cytoskeleton reorganization, CD4^+, CD8^+ or Jurkat cells were cytospun for 10 minutes at 1000 RPM onto positively charged microslides (Fisher Scientific, Hampton, N.H., U.S.A.). The cells were fixed with 3.7% paraformaldehyde (Sigma Chemical Co.) for 15 minutes and stained with CTB594 (Molecular Probes, Eugene, Oreg., U.S.A.), AlexaFluor488 labeled phalloidin (Molecular Probes) or (1:50) biotin-conjugated anti-p-Tyr (PY99) followed by Streptavidin-AlexaFluor594 (1:100, Molecular Probes). For p-LAT and p-PLCγ1 staining, fixed cells were treated with PBS containing 0.1% Triton-X 100 and 100 mM glycine for 15 min at room temperature and stained using rabbit p-LAT (Tyr^191) or rabbit anti-p-PLCγ1 (Tyr^783) probed with anti-rabbit IgG488 (Molecular Probes).
The amount of F-actin in activated CD4+ T cells in the presence and absence of Salp15 was quantified by ultracentrifugation and Western blotting. CD4^+ T cells were activated as described above for 2 min. Cells were lysed in HEPES buffer containing Triton X-100 (10 mM NaCl, 135 mM KCl, 2 mM MgCl2, 2 mM EGTA, 10 mM HEPES pH 7.15, 1% Triton X-100, 0.01 mg/ml aprotinin, 0.01 mg/ml leupeptin, 1 mM PMSF). […] Equal amounts of total protein were loaded on the SDS-gel based on the total actin determined from a sample of the cell lysate.

R-EAE in SJL/J mice = test: Relapsing-EAE model in PLP139-151 immunized SJL mice; format: in vivo, mouse
Method: SJL/J mice in groups of 18 are injected i.p. with 200 μg of PLP peptide 139-151 (HSLGKWLGHPDKF; SEQ ID NO: 15) (Research Genetics, Huntsville, Ala., U.S.A.). Please note that the original Cysteine has been substituted by serine for stability purposes. […] One group of mice receives daily injections of 50 μg of recombinant Salp15 produced in a Drosophila expression system, starting day 10 after immunization. This regime permits an efficient in vivo activation of PLP139-151-specific CD4^+ T cell activation. Since Salp15 has no effect on effector CD4^+ T cells (Anguita et al., 2002.), its function is expected to be circumscribed to the activation of neoreactive CD4^+ T cells. […]
At days 12 (including the 3 control mice treated with Salp15 over the course of the immunization), 14, 17, 20, 30 and 60 post-infection, 3 mice from each group are sacrificed and analyzed as follows: splenic CD4^+ T cells are purified by negative selection using biotinylated antibodies against CD8a, Ly6G, Mac-I, B220, class II (I-A^k and I-E^k) and panNK molecules (BD Biosciences Pharmingen, San Jose, Calif., U.S.A.), followed by incubation with Avidin bound to magnetic microbeads and passage through a magnetic column (Miltenyi Biotec, Auburn, Calif., U.S.A.). […]
Peripheral responses to relapsing epitopes are assessed by the analysis of delayed type hypersensitivity (DTH). […]

Salp15: secreted salivary protein from Ixodes scapularis, SEQ ID NO: 2; recombinant His-tagged, produced in Drosophila S2 cells
Phalloidin488 staining / amount of F-actin (Jurkat cells): reduced | Activation of CD4+ T cells in response to new epitopes (epitope spreading) (R-EAE in SJL/J mice; daily 50 μg Salp15 from day 10 after immunization): lowered activation | Degree of demyelination (R-EAE in SJL/J mice; histology of brains and spinal cords): lower degree of demyelination
